In patent EP1095025B1, “BENZIMIDAZOLES, PRODUCTION THEREOF AND USE THEREOF AS MEDICAMENTS” (Boehringer Ingelheim Pharma KG, priority 1998, dated 2000):
Where a name gives a salt, the structure may show the parent alone.

Tested on: humanem Citrat-Plasma
Assay: aPTT time prolongation in plasma (Biomatic B10 coagulometer)
Type: biochemical
Conditions: effective substance concentration, from a dose-response curve, at which the aPTT time is doubled versus control; human citrate plasma, 37°C

| Structure (SMILES) | aPTT-Zeit (ED200 in µM) |
| --- | --- |
| Cn1c(CNc2ccc(C(=N)N)cc2)nc2cc(C3(C(=NOCC(=O)O)c4ccccn4)CC3)ccc21 (mixture of isomers) [B, (E/Z)-2-(4-Amidinophenylaminomethyl)-1-methyl-5-[1-[(pyridin-2-yl)-(carboxymethyloxyimino)methylen]cyclopropyl]-benzimidazol-hydrochlorid] | 0.42 µM |
| Cl.Cn1c(CNc2ccc(C(=N)N)cc2)nc2cc(C3(C(=O)N4CCCC4)CC3)ccc21 [A, 2-(4-Amidinophenylaminomethyl)-1-methyl-5-[1-(pyrrolidin-1-yl-carbonyl)cyclopropyl]-benzimidazol-hydrochlorid] | 0.12 µM |
| Cl.Cn1c(CNc2ccc(C(=N)N)cc2)nc2cc(C(C)(NCCC(=O)O)C(=O)N3CCCC3)ccc21 (stereo not shown) [C, 2-(4-Amidinophenylaminomethyl)-1-methyl-5-[1-(2-carboxyethylamino)-1-(pyrrolidin-1-yl-carbonyl)-ethyl]-benzimidazol-hydrochlorid] | 0.31 µM |
| Cl.Cn1c(CNc2ccc(C(=N)N)cc2)nc2cc(C3(C(=O)N4CCCC4CCC(=O)O)CC3)ccc21 (stereo not shown) [D, 2-(4-Amidinophenylaminomethyl)-1-methyl-5-[1-[2-(2-carboxyethyl)-pyrrolidin-1-yl-carbonyl]cyclopropyl]-benzimidazol-hydrochlorid] | 0.29 µM |
| Cc1nc(CCC(=O)O)n(Cc2ccc3c(c2)nc(CNc2ccc(C(=N)N)cc2)n3C)c1C.Cl [E, 2-(4-Amidinophenylaminomethyl)-1-methyl-5-[2-(2-carboxyethyl)-4,5-dimethyl-imidazol-1-yl-methyl]-benzimidazol-hydrochlorid] | 0.29 µM |
| Cl.Cn1c(CNc2ccc(C(=N)N)cc2)nc2cc(C(C)(NCC(=O)O)C(=O)N3CCCC3)ccc21 (stereo not shown) [F, 2-(4-Amidinophenylaminomethyl)-1-methyl-5-[1-(carboxymethylamino)-1-(pyrrolidin-1-yl-carbonyl)-ethyl]-benzimidazol-hydrochlorid] | 0.20 µM |
| CN(CC(C)(C(=O)N1CCCC1)c1ccc2c(c1)nc(CNc1ccc(C(=N)N)cc1)n2C)C(=O)CC(=O)O (stereo not shown) [G, 2-(4-Amidinophenylaminomethyl)-1-methyl-5-[1-(N-methylcarboxymethylcarbonylaminomethyl)-1-methyl-1-(pyrrolidin-1-yl-carbonyl)-ethyl]-benzimidazol-dihydrochlorid] | 0.17 µM |
